What was measured:
endosomal TLRs = assay: TMPD (pristane) + CpG ODN induced SLE model; format: in vivo, mouse
Procedure: At day 7 mice were injected with CpG ODN 1585 (50 μg/20 g). Blood was collected once a month to dose the circulating autoantibodies level. Mice were sacrificed at week 24 after disease induction. (A) Flow cytometry analysis of peritoneum exudate cells populations (PEC) at day 14. […] Statistical significance was assigned using two tailed Student's t test (* p<0.05). (C) Level of circulating anti-RNA antibodies (normalized to control mice), anti-nuclear antibodies (arbitrary units), presence of lipogranulomas in the peritoneal cavity (arbitrary score) and glomerulopathy (histological score blindly determined by an anatomopathologist) at week 24. Statistical significance was assigned by a one-way ANOVA, followed by Tukey range test (* p<0.05;** p<0.005; ***p<0.0005.). N.S., not significant. n values in the figure indicate the number of mice.
Wild type female mice C57BL/6 of 6 weeks of age were injected i.p. with 500 μL of TMPD (Sigma Aldrich) or PBS. From day 1 to day 13 mice were injected i.p. every 2 days with GBZ or PBS/DMSO 2 mg/kg. Mice were injected i.p. at day 7 with ODN 1585 or PBS 50 μg/20 g of mouse. Mice were sacrificed at day 14 or after 6 months. At day 14, peritoneal exudate cells (PEC) were taken for flow cytometry analysis. After 6 months kidneys were taken for immunohistochemistry. During 6 months, blood serum collection was effectuated once a month, from month 2 after the injection of TMPD up to one week before the animal sacrifice. Serum was used to evaluate the concentration of circulating autoantibodies. Anti-RNA ELISA. Evaluation of autoantibodies against RNA was performed by coating ELISA plates with 50 μl/well of 5 μg/ml mouse RNA or DNA in PBS and incubated overnight at 4° C. Next day, the plates were incubated with 1:50 or 1:100 diluted serum samples in working solution (PBS+0.05% Tween20+1% BSA), and the assay was developed with HRP-labeled goat anti-mouse IgG (Southern Biotech).
Mouse kidney and liver were fixed in 10% buffered formalin for 24 h, then the tissues were dehydrated and embedded in paraffin. Tissue sections of 3.5 μm were cut using the microtom Leica RM2245. Hematoxylin-eosin staining was effectuated automatically with Leica autostainer XL. Finally, the slides were mounted with entellan and kept at room temperature. Biopsies were analyzed by an anatomopathologist and the clinical score was assigned in a blinded way. Pictures were taken with Nikon Eclipse.

[1] = test system: dendritic cells (TLR stimulation); assay: IFN-β and IL-6 production by WT and GADD34ΔC/ΔC DCs stimulated with TLR ligands; format: cell-based, mouse; settings: GBZ 50 μM
Procedure: BM-derived DCs were differentiated in vitro from the bone marrow of 6-8 weeks old male mice, using either FLT3 ligand or GM-CSF. Flt3L-DCs were used for experiments between days 6 and 7. Flt3L was produced using B16-Flt3L hybridoma cells. Bone marrow progenitors were plated at 1.5 10^6 cells/ml, 4 ml/well in 6 well plate, and cultivated with RPMI (GIBCO), 10% FCS (Sigma Aldrich), 100 units/ml penicillin and 100 μg/ml streptomycin (GIBCO), 50 μM b-mercaptoethanol (VWR) and Flt3L. For sorted Flt3L-DCs, cells were gently harvested at day 7 with cold PBS 2% FCS, centrifuged 1200 rpm 5 min at 4° C., counted and stained with for 30 mins at 4° C. Cells were sorted with the FACS ARIASorp. Cells were kept on ice all the time. After sorting, cells were resuspended in supplemented Flt3L-DCs medium at the concentration of 0.2 0.10^6 cells/well and plated at in a 96 wells plate U bottom. GM-CSF DCs were produced and used for experiments at day 6 of differentiation.
Splenocytes were dissociated injecting Liberase TL, followed by 25 min incubation at 37° C. Cells were washed using MACS buffer (PBS 1X+1% FBS+2 mM EDTA) and passed in a cell strainer 70 μm, then centrifuged 5 min at 450 RCF, 4° C. Red blood cells were lysed using the commercial buffer from eBioscience. Dendritic cells were purified using CD11c^+ positive selection kit from Miltenyi. Splenic DCs were then resuspended in the same medium as for Flt3L-DCs at 1.10^6 cells/ml and plated in a 12 wells plate, 2 ml×well. B lymphocytes were purified using B cell isolation kit, a negative selection kit from Miltenyi. B cells were then resuspended in a medium composed of RPMI (GIBCO), 10% FCS (Sigma Aldrich), lx glutamine, 1× non-essential amino acids, 10 mM HEPES (all the previous from GIBCO), 50 μM b-mercaptoethanol (VWR). Cells were plated at 1×10^6 cells/well in 96 well plate, flat.
Mouse IFN-β quantification in culture supernatant was performed using the Mouse Interferon Beta ELISA kit (PBL InterferonSource); mouse IL-6, TNFα, IL-10, human TNFα and human IFNα were quantified using ELISA kit (eBioscience) respectively, according to manufacturer instructions.
We have previously shown that GM-CSF-induced bone-marrow-derived DCs from GADD34^ΔC/ΔC mouse display limited capacity to express IFNβ and IL-6 in response to the dsRNA mimic polyriboinosinic:polyribocytidylic acid (poly(I:C)). We investigated whether this observation could be extended to other DC subsets and TLR ligands. WT and GADD34^ΔC/ΔC DC isolated directly from spleen or generated in vitro from bone-marrow progenitors, using either Flt3L- or GM-CSF-induced differentiation, were submitted to stimulation with LPS, poly(I:C) or CpG ODN and analyzed for IFN-β and IL-6 production (data not shown). […]

[2] = 22 weeks after TMPD injection, vs TMPD and CpG only
[3] = GADD34ΔC/ΔC Flt3L-DCs, CpG ODN stimulation

Compound: NC(N)=N/N=C/c1c(Cl)cccc1Cl [GBZ, 2-(2,6-dichlorobenzylidene)-hydrazinecarboximidamide]
- circulating anti-RNA immunoglobulins titer (endosomal TLRs; [2]): substantially lower
- circulating anti-nuclear immunoglobulins titer (endosomal TLRs; [2]): substantially lower
- Ig-complexes deposits in the kidneys (glomerulonephritis) (endosomal TLRs; C57BL/6, control vs GBZ-treated animals): unable to induce overall sufficient glomerulonephritis to observe significant differences
- lipogranulomas in the peritoneal cavity (endosomal TLRs; GBZ-treated vs TMPD and CpG only): considerably smaller numbers
- transcriptional up-regulation of TNF-α, ISG 15 and CH25H in PECs (qPCR) (endosomal TLRs; TMPD+CpG injected mice, recurrent GBZ injections): strongly inhibited
- immune cells migration into or from the peritoneal cavity (PEC flow cytometry) (endosomal TLRs; day 14, GBZ 2 mg/kg i.p. every 2 days, day 1 to 13): did not prevent
- IFN-β production [1, 3]: incapable of producing
- IL-6 production [1, 3]: incapable of producing
- IFN-β production in response to TLR9 stimulation compared with Gadd34 genetic inactivation ([1]; data not shown): far stronger capacity to inhibit
- IL-6 production compared with Gadd34 genetic inactivation ([1]; data not shown): superimposable to GADD34 deficiency

— patent publication US20210177814A1, “USE OF GUANABENZ OR DERIVATES THEREOF FOR THE TREATMENT OF TYPE I IFN-DEPENDENT PATHOLOGIES” (INSERM (Institut National de la Santé et de la Recherche …, priority 2018, published 2021)
